Experimental data taken from patent US9150559B2, “Anti-proliferative compounds and methods for using the same” (The Board of Trustees of the Leland Stanford Junior …, priority 2011, dated 2015).

What was measured:
[1] = test system: MLL leukemia cell lines (RS411-MLL-AF4; HB-MLL-ENL) and control cells (REH-TEL-AML); assay: Cell-based high-throughput phenotypic screen, cell viability by fluorescent indicator dye; set-up: species or system human; conditions: 2 days after addition of compounds
Description: Cell viability was assessed using a fluorescent indicator dye at 2 days after addition of compounds.

[2] = test system: normal murine bone marrow progenitors; assay: Therapeutic window: human B-ALL cell lines versus normal bone marrow progenitors; assay type: cell-based, human and murine
[3] = Initial pharmacokinetic studies in mice; assay type: in vivo
Description: Initial pharmacokinetic studies were conducted in mice to inform design of pre-clinical efficacy studies.

[4] = test system: human and mouse leukemia cell lines; assay: Apoptosis (annexin V and propidium iodide staining) after a single treatment; assay type: cell-based
Text: Compound 1 induced death of human and mouse leukemia cell lines by apoptosis (annexin V and propidium iodide staining) within 3 days of a single treatment, indicating a cytotoxic as opposed to cytostatic effect.

[5] = Additional toxicity study, subcutaneous twice a day for 10 days; assay type: in vivo; conditions: mice
Description: An additional toxicity study was performed by injecting mice subcutaneously twice a day with 20 mg/kg compound formulated in 5% DMSO/20% gamma-cyclodextrin or 22.5 mg/kg compound formulated in 10% DMSO/40% captisol. for 10 consecutive days. Animals were also dosed with gamma-cyclodextrin or captisol vehicle alone.

[6] = test system: AML cell lines induced by MLL-AF10 or MLL-AF9; assay: Effects on murine leukemia cell lines established from AMLs induced by MLL fusion oncogenes; assay type: cell-based
Description: Compound 1 was also tested for its effects on murine leukemia cell lines established from AMLs induced via retroviral transduction of MLL fusion oncogenes (Somervaille, T. C. & Cleary, M. L. Identification and characterization of leukemia stem cells in murine MLL-AF9 acute myeloid leukemia. Cancer Cell 10, 257-268, (2006)).

[7] = test system: primary human patient ALL samples; assay: Inhibition of primary human patient ALL samples; assay type: cell-based
Description: (§1) The majority of human leukemia cell lines with MLL translocations (3/4) were inhibited more potently than non-MLL cell lines (FIG. 3); although most non-MLL cells lines (4/6) were still sensitive to the compounds. […] Compound 1 also has inhibitory effects on primary human patient ALL samples with an IC50 of 4-20 nM.

[8] = test system: human cancer cell lines derived from 9 different tissues; assay: NCI 60-cell line screen, growth inhibition (sulforhodamine B); assay type: cell-based; conditions: colon and prostate cancer cell lines; 48 hours incubation
Description: FIG. 1. Mean graph representing the sensitivity of 60 human cell lines to compound 1. The vertical line at GI50 (the drug concentration resulting in a 50% growth reduction) represents the mean response to 10 μM compound 1.
FIG. 2. Growth response of human cell lines grown for 2 days in the presence of increasing concentrations of compound 1.
The compounds have broad specificity and affect human cell lines of multiple lineages. The growth inhibitory properties were analyzed in human cancer cell lines derived from 9 different tissues in the NCI 60-cell line screen. To perform this assay, cells were plated in 96-well plates and incubated overnight. After 24 hours, compounds were added to the wells and plates. Two plates of each cell line were set aside and fixed in TCA to measure the quantity of cells present at the time drug was added (time 0). The remaining plates were incubated for 48 hours. The assay was terminated by addition of TCA, and the cells were quantified by staining the cellular proteins with sulforhadamine B. The growth inhibition (GI50) was calculated by dividing the difference between treated cells at the beginning and end of the assay by the difference between untreated cells at the beginning and end of the assay.

[9] = test system: MV411-lucifease cell line; assay: In vitro sensitivity of MV411-luciferase cell line; assay type: cell-based, human
[10] = Solubility / formulation property; assay type: physicochemical
[11] = test system: cells lines with other translocations (E2A-PBX, E2A-HLF, TEL-PDGFRB); assay: Viability of human leukemia (B-ALL) cell lines, cell titer blue assay; assay type: cell-based; conditions: read-out: IC50 (half maximal inhibitory concentration)
Description: (§2) FIG. 3. Inhibition of human B-ALL cell lines treated with compound. Cell lines were treated with increasing concentrations of compound and assessed for viability 3 days post-treatment by cell titer blue assay.
as §1

[12] = test system: human leukemia cell lines with MLL translocations; assay: as above; assay type: cell-based; conditions: 72 h, viability 3 days post-treatment, read-out: IC50 (half maximal inhibitory concentration)
Description: as §2, §1

[13] = Preliminary toxicity studies, daily injection over 10 days; assay type: in vivo
Description: Preliminary toxicity studies were performed. Mice were injected (vehicle alone, 8 mg/kg, or 16 mg/kg) daily over a 10 day-period with a 2-day holiday after the first 4 days.

CC(=O)[C@]1(O)Cc2c(O)c3c(c(O)c2[C@@H](O[C@H]2C[C@H](N)[C@H](O)[C@H](C)O2)C1)C(=O)c1ccccc1C3=O [idarubicin, reference compound]
cell viability in high-throughput screen [1]: reduced viability of all cell lines
sensitivity of human B-ALL cells versus normal murine bone marrow progenitor cells [2]: overlapping potency

Cc1ccc(S(=O)(=O)Cc2nc(-c3ccc(C(=O)NCc4cccnc4)cc3)oc2C)cc1 [Compound 1]
compound remaining in plasma ([3]; at 24 hours): almost no compound remained
half-life ([3]; mouse, plasma, 16 mg/kg i.p. or s.c. (10% DMSO/40% captisol), 25 mg/kg i.p., s.c., oral (5% DMSO/20% gamma-cyclodextrin)): ~1.5 h
absorption into plasma ([3]; single intra-peritoneal or subcutaneous injection 16 mg/kg): quickly absorbed in plasma
kinetics of cell death: completion ([4]; after treatment): 48 h
kinetics of cell death: initiation ([4]; after treatment): 24 h
time to death by apoptosis ([4]; single treatment, annexin V and propidium iodide staining): ≤ 3 days
sensitivity of human B-ALL cells versus normal murine bone marrow progenitor cells [2]: differential sensitivity
nephrotoxicity ([5]; gamma-cyclodextrin formulation, 20 mg/kg s.c. twice a day): No nephrotoxicity was observed
toxic side effects (histological tissue morphology, serological liver and kidney function tests) ([5]; s.c. twice a day, 20 mg/kg (5% DMSO/20% gamma-cyclodextrin) or 22.5 mg/kg (10% DMSO/40% captisol)): No toxic side effects were observed
sensitivity of murine AML cell lines [6]: highly sensitive
IC50 [7]: 4 to 20 nM
growth inhibitory activity (GI50) in NCI 60-cell line screen [8]: particularly high activity
IC50 ([9]; Homo sapiens, MV411-luciferase cell line): 10 nM
IC100 ([9]; MV411-luciferase cell line, printed with (±20 nM)): 25 nM
effect of pre-incubation with FBS on potency ([9]; pre-incubation of compound with FBS prior to cell treatment in vitro): no effect on potency
solubility [10]: sparingly soluble
IC50 [11]: 10 to 20 nM
IC50 [12]: 1 to 10 nM
tolerability (distress, body weight reduction) ([13]; mice, 8 or 16 mg/kg daily over 10 days with 2-day holiday): All but one animal tolerated dosing
nephrotoxicity ([13]; mice, captisol formulation, also seen in animals treated with vehicle only): Mild nephrotoxicity
cardiotoxicity ([13]; mice, high-dose group (16 mg/kg)): Severe cardiotoxicity in one animal and mild cardiotoxicity in another animal
MTD or lethal dose ([13]; mouse, in vivo): not achieved
